Measured values taken from paper PMC8245786, “Comparative Studies on Multi-Component Pharmacokinetics of Polygonum multiflorum Thunb Extract After Oral Administration in Different Rat Models” (Frontiers in Pharmacology, 2021).

Legend:
UGT1A1 = experiment: Expression level of UGT1A1 in rat liver (UHPLC-MS/MS signature peptide) and correlation with AUC; type: in vivo; details: before administration of AE-PM
Method: (§1) The detection method for UGT1A1 and nine other transporter proteins in the liver was comprehensively investigated in our study (35).
(§2) The sequence of characteristic peptides that corresponded to UGT1A1 and the other nine transporter proteins were based on our previous experiments and listed in Table 3 .
(§3) Total membrane protein was isolated (in triplicate) from liver tissue samples according to the Native Membrane Protein Extraction Kit protocol. Subsequently, protein concentrations were determined by the BCA Protein Assay Kit. 10 µl of 5 mg/ml (or lower concentration) of a hepatocyte membrane protein incubated with 20 µl of dithiothreitol (100 mM) and 50 µl of ammonium bicarbonate buffer (50 mM, pH 7.8). After incubation at 95°C for 5 min, 20 µl of iodoacetamide (20 mM) was added to the mixture, followed by incubation at 37°C for 20 min in the dark. To concentrate the samples, ice-cold methanol (0.5 ml), chloroform (0.2 ml), and water (0.2 ml) were added. After centrifugation at 4°C for 5 min at 16,000 g, the supernatant was discarded and the pellet was washed once with ice-cold methanol (0.25 ml) and resuspended with 40 µl of reconstitution solution (equal volume of 3% sodium deoxycholate (w/v) and 5 mM ammonium bicarbonate buffer). Finally, the protein sample was digested with 10 µl of trypsin. The protein-to-trypsin ratio was 25:1 (w/w). […]

BSEP = experiment: Expression level of BSEP in rat liver (UHPLC-MS/MS signature peptide) and correlation with AUC; type: in vivo; details: before administration of AE-PM
Method: as §1, §2, §3

OATP1A4 = experiment: Expression level of OATP1A4 in rat liver (UHPLC-MS/MS signature peptide) and correlation with AUC; type: in vivo; details: before administration of AE-PM
Method: as §1, §2, §3

OCT1 = experiment: Expression level of OCT1 in rat liver (UHPLC-MS/MS signature peptide) and correlation with AUC; type: in vivo; details: before administration of AE-PM
Method: as §1, §2, §3

NTCP = experiment: Expression level of NTCP in rat liver (UHPLC-MS/MS signature peptide) and correlation with AUC; type: in vivo; details: before administration of AE-PM
From the text: as §1
An Agilent 1290 Infinity series UHPLC system coupled to an Agilent 6460 series MS/MS system (Agilent Technologies, Santa Clara, CA, United States) was applied to quantitate the signature peptides in ESI positive ionization mode. […] The sequence of characteristic peptides that corresponded to UGT1A1 and the other nine transporter proteins were based on our previous experiments and listed in Table 3 .
Total membrane protein was isolated (in triplicate) from liver tissue samples according to the Native Membrane Protein Extraction Kit protocol. Subsequently, protein concentrations were determined by the BCA Protein Assay Kit. 10 µl of 5 mg/ml (or lower concentration) of a hepatocyte membrane protein incubated with 20 µl of dithiothreitol (100 mM) and 50 µl of ammonium bicarbonate buffer (50 mM, pH 7.8). After incubation at 95°C for 5 min, 20 µl of iodoacetamide (20 mM) was added to the mixture, followed by incubation at 37°C for 20 min in the dark. To concentrate the samples, ice-cold methanol (0.5 ml), chloroform (0.2 ml), and water (0.2 ml) were added. […]

MDR1 = experiment: Expression level of MDR1 in rat liver (UHPLC-MS/MS signature peptide) and correlation with AUC; type: in vivo; details: before administration of AE-PM
Method: as §1, §2, §3

[1] = Serum biochemistry in ANIT and CCl4 liver injury model rats; type: in vivo, rat; details: 24 h after model induction; before AE-PM
Method: Additionally, group 3 represented the CCl4-induced hepatocytes injury model, which was treated with pure CCl4 (5 ml/kg, s. c.) on day 0, 50% CCl4 (diluted in olive oil) (3 ml/kg, s. c.) on day 3, and 20% CCl4 (diluted in olive oil) (3 ml/kg, s. c.) on day 6. After 24 h, five rats selection for serum and liver collection from each of the three groups. Blood samples were collected in a coagulation tube, and were centrifuged at 4°C for 15 min (4,000 rpm), The resultant serum was used for the ALT, AST, TBIL, DBIL, TBA and ALP assays. Liver samples were dissected and stored at −80°C for further analysis, whereas the central part of the right large lobe of the liver was used for histological examination.

Row | Structure (SMILES) | Reduction of UGT1A1 expression level compared with the control group (UGT1A1) [%] | Reduction of BSEP expression level compared with the control group (BSEP) [%] | Reduction of OATP1A4 expression level compared with the control group (OATP1A4) [%] | Reduction of OCT1 expression level compared with the control group (OCT1) [%] | Reduction of NTCP expression level compared with the control group (NTCP) [%] | Reduction of MDR1 expression level compared with the control group (MDR1) [%] | Increase of serum ALT compared with the control group [1] [folds] | Increase of serum AST compared with the control group [1] [folds]
1 | ClC(Cl)(Cl)Cl [CCl4, Carbon tetrachloride] | 31.18 | 26.92 | 46.11 | 22.30 | 15.75 | 34.15 | 4.45 | 2.68
2 | S=C=Nc1cccc2ccccc12 [ANIT, alpha-naphthylisothiocyanate] |  |  |  |  | 38.02 |  |  | 
